ChEMBL document CHEMBL1817669, “Design and pharmacological evaluation of PF-4840154, a non-electrophilic reference agonist of the TrpA1 channel” (Bioorg Med Chem Lett, 2011)
Values after ≈ are worked out from the molar mass of the structure shown. Active and inactive are the calls of the source. The rule behind the calls is not given here.

Assays:
[1] = biological target: Transient receptor potential cation channel subfamily M member 8 (Homo sapiens) (UniProt Q7Z2W7); assay: Agonist activity at human TRPM8 receptor; type: functional
Sequence of Transient receptor potential cation channel subfamily M member 8 (Homo sapiens) (Q7Z2W7 whole entry, looked up): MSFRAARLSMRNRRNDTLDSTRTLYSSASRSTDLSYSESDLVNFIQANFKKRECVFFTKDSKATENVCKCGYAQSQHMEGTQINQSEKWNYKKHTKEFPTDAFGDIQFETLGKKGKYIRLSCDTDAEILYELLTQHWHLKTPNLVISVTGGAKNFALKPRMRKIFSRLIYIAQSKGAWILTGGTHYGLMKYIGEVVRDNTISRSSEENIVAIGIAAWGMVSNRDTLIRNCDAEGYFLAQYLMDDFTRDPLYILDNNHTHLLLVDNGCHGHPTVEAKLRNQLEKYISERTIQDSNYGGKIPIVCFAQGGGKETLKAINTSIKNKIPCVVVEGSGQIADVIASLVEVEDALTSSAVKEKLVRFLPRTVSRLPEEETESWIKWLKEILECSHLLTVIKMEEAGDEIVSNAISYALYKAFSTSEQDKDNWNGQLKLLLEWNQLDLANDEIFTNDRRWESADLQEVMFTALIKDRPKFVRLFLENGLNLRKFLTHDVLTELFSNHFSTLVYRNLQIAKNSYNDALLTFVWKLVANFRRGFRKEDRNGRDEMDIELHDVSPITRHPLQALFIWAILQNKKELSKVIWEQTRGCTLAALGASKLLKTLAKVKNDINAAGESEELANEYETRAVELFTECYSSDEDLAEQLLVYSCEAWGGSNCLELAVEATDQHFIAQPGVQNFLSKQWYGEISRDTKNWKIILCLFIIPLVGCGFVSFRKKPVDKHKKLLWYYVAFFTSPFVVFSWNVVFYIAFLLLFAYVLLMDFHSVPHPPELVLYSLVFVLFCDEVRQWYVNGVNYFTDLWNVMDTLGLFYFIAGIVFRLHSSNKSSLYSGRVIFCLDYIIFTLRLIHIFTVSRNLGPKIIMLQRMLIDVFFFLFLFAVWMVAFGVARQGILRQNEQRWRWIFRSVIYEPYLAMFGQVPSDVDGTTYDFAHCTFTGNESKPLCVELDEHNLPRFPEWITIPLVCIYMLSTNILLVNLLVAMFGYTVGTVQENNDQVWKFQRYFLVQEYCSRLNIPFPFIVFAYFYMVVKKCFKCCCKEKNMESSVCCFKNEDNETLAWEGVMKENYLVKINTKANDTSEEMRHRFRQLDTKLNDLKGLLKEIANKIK

[2] = test system: Mus musculus; assay: Antinociceptive activity against formalin-induced inflammatory pain in Trpa1-positive CD1 mouse assessed as increase in time spent in paw licking at 30 nmol, intraplantar measured every 5 mins for 60 mins in pretreated with 100 mg/kg Trpa1 antagonist HC003031; type: functional, organism-based; design: dose 100 mg/kg
[3] = species: Mus musculus; assay: Antinociceptive activity against formalin-induced inflammatory pain in Trpa1-positive CD1 mouse assessed as increase in time spent in paw licking at 30 nmol, intraplantar measured every 5 mins for 60 mins; type: functional, organism-based
[4] = Aqueous solubility of the compound at pH 7.4; type: physicochemical
[5] = biological target: Transient receptor potential cation channel subfamily M member 8 (Homo sapiens) (UniProt Q7Z2W7); assay: Antagonist activity at human TRPM8 receptor; type: functional
[6] = biological target: D(3) dopamine receptor (Homo sapiens) (UniProt P35462); assay: Inhibition of dopamine D3 receptor at 1.9 uM
[7] = biological target: Transient receptor potential cation channel subfamily V member 1 (Homo sapiens) (UniProt Q8NER1); assay: Antagonist activity at human TRPV1 receptor; type: functional
Sequence of Transient receptor potential cation channel subfamily V member 1 (Homo sapiens) (Q8NER1 whole entry): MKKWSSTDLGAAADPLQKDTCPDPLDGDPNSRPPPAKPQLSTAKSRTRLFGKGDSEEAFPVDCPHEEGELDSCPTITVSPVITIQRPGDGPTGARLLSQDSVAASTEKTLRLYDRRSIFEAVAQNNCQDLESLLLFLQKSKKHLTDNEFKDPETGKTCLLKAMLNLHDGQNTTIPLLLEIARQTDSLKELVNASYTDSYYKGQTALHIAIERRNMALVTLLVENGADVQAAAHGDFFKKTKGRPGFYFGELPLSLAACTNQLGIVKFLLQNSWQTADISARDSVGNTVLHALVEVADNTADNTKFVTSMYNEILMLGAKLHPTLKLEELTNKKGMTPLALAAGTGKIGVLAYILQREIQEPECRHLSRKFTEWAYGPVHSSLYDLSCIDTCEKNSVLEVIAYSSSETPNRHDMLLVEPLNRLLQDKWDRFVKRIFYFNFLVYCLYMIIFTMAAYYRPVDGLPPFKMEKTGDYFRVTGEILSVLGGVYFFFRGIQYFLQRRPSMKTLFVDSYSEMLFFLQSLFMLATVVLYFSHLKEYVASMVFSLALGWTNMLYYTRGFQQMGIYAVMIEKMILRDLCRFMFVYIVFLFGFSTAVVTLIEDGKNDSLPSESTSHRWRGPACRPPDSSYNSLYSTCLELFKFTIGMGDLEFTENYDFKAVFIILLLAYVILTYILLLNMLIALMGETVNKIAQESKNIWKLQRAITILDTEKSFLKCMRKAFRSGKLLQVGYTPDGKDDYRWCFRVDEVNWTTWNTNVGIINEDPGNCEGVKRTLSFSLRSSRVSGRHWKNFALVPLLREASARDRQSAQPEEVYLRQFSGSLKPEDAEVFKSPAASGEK

[8] = biological target: Transient receptor potential cation channel subfamily V member 1 (Homo sapiens) (UniProt Q8NER1); assay: Agonist activity at human TRPV1 receptor; type: functional
[9] = species: Mus musculus; assay: Antinociceptive activity against formalin-induced inflammatory pain in Trpa1-knock out CD1 mouse assessed as increase in time spent in paw licking at 30 nmol, intraplantar measured every 5 mins for 60 mins; type: functional, organism-based
[10] = biological target: Sodium-dependent dopamine transporter (Homo sapiens) (UniProt Q01959); assay: Inhibition of dopamine transporter at 1.6 uM
[11] = biological target: Transient receptor potential cation channel subfamily V member 4 (Homo sapiens) (UniProt Q9HBA0); assay: Agonist activity at human TRPV4 receptor; type: functional
Sequence of Transient receptor potential cation channel subfamily V member 4 (Homo sapiens) (Q9HBA0 whole entry): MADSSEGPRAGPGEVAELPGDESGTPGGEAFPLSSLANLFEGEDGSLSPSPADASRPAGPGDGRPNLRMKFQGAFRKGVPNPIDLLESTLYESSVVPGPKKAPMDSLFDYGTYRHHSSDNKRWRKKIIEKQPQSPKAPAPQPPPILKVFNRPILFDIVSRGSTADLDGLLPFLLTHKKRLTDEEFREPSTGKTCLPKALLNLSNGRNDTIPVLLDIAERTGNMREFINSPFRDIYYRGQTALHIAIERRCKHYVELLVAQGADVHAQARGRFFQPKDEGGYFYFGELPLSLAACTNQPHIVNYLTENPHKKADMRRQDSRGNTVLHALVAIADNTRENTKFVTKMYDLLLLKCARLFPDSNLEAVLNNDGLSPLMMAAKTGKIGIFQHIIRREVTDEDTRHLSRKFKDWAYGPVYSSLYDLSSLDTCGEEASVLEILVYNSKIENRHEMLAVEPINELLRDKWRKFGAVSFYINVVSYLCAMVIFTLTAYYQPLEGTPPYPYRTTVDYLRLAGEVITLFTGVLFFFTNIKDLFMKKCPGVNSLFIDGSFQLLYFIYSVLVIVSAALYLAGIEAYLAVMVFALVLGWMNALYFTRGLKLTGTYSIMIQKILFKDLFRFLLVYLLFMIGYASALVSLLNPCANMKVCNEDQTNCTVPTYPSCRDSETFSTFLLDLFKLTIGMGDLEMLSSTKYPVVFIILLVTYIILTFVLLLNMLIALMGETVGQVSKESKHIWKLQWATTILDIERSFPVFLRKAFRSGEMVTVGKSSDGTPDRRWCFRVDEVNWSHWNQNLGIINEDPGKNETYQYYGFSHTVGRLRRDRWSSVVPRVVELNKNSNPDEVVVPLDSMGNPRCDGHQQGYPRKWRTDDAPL

[12] = biological target: Transient receptor potential cation channel subfamily A member 1 (Rattus norvegicus, UniProt Q6RI86); assay: Agonist activity at rat TRPA1 channel expressed in HEK293 cells assessed as calcium influx measured at every 1 second for 60 seconds by fluorescence analysis; type: functional, cell-based
Sequence of Transient receptor potential cation channel subfamily A member 1 (Rattus norvegicus, UniProt Q6RI86) (Q6RI86 whole entry): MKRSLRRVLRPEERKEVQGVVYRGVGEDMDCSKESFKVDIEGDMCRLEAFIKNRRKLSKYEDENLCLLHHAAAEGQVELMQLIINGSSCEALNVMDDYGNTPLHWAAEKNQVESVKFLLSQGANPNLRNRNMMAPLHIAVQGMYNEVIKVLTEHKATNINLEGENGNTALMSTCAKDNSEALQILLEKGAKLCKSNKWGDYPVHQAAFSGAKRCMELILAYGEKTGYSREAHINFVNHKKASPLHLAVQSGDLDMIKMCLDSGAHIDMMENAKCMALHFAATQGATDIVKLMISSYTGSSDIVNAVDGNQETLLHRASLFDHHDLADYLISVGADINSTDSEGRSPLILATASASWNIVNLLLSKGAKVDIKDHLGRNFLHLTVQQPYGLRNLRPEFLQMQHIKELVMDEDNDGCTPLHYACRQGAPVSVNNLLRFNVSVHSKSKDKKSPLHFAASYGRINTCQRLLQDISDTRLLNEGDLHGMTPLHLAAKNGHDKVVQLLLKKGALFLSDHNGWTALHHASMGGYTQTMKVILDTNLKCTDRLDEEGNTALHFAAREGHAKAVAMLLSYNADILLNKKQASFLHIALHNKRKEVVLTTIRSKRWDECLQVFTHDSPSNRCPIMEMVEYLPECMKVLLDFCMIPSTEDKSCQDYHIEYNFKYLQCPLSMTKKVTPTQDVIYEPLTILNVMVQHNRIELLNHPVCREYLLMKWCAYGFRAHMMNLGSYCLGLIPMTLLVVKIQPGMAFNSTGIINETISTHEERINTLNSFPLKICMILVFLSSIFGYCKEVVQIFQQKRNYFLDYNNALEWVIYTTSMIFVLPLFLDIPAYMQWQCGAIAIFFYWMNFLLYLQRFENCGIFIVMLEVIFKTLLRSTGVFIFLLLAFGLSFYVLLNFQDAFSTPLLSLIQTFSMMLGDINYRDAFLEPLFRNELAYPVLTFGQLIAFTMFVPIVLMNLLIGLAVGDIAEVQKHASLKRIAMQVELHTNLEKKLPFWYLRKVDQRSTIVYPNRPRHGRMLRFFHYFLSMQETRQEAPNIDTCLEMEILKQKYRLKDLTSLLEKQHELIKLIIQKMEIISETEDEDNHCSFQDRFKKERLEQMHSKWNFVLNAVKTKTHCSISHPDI

[13] = Inhibition of sigma receptor at 1.1 uM
[14] = biological target: Transient receptor potential cation channel subfamily A member 1 (Homo sapiens, UniProt O75762); assay: Agonist activity at human TRPA1 channel expressed in HEK293 cells assessed as calcium influx measured at every 1 second for 60 seconds by fluorescence analysis; type: functional, cell-based
Sequence of Transient receptor potential cation channel subfamily A member 1 (Homo sapiens, UniProt O75762) (O75762 whole entry): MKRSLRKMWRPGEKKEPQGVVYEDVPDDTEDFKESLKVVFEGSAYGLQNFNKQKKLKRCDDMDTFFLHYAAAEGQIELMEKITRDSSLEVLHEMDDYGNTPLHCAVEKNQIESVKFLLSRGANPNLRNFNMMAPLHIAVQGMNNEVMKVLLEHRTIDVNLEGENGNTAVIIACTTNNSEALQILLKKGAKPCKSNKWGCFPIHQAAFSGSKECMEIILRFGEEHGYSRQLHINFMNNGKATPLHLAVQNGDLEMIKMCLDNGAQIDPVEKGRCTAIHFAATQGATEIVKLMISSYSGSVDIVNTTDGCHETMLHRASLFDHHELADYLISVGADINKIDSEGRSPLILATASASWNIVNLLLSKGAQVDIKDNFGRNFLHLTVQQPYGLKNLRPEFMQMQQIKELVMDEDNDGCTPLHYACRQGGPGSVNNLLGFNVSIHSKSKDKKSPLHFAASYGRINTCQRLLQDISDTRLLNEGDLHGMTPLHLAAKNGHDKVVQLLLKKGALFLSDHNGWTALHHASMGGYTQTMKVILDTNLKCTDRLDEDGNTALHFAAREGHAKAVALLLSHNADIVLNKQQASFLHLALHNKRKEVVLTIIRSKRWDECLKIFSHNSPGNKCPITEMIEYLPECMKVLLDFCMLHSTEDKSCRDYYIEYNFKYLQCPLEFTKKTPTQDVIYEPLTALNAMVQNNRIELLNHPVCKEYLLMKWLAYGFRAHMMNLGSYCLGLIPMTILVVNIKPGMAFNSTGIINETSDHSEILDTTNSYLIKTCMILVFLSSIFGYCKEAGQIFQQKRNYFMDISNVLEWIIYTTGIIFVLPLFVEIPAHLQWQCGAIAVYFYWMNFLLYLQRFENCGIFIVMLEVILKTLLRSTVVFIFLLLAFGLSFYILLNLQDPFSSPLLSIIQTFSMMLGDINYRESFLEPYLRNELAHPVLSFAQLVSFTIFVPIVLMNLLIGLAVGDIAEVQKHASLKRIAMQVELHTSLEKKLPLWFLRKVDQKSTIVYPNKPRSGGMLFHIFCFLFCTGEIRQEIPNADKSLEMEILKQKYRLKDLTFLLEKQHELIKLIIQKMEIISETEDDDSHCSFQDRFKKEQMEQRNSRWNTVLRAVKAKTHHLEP

[15] = biological target: Transient receptor potential cation channel subfamily V member 4 (Homo sapiens) (UniProt Q9HBA0); assay: Antagonist activity at human TRPV4 receptor; type: functional
[16] = biological target: Sodium-dependent noradrenaline transporter (Homo sapiens) (UniProt P23975); assay: Inhibition of noradrenaline transporter at 2.8 uM
[17] = Inhibition of chloride channel at 1.5 uM
[18] = biological target: Transient receptor potential cation channel subfamily A member 1 (Rattus norvegicus) (UniProt Q6RI86); assay: Agonist activity at rat TRPA1 channel expressed in HEK293 cells assessed as calcium influx at 10 uM measured at every 1 second for 60 seconds by fluorescence analysis; type: functional, cell-based
Sequence of Transient receptor potential cation channel subfamily A member 1 (Rattus norvegicus) (Q6RI86 whole entry): as the sequence (Q6RI86 whole entry) above

Compound | EC50 [12] [nM] | EC50 ([14]; read-out: EC50) [nM] | EC50 ([14]; hek293) | other results
COCCNC(=O)c1cnc(N2CCN(Cc3ccccc3)CC2)nc1NCC(C)C | 581 |  | Not Active | 
O=C(NCc1ccccc1)c1cnc(N2CCN(C(=O)c3ccccc3)CC2)nc1NC1CC1 | 5600 |  | Not Active | 
O=C(NCc1ccccc1)c1cnc(N2CCN(CC3CCCOC3)CC2)nc1NC1CC1 (stereo not given) | 848 | 109 |  | 
CCCCN1CCN(c2ncc(C(=O)NCc3ccccc3)c(NC3CC3)n2)CC1 |  |  | Not Active | activation [18]: 30%
CC(C)CNc1nc(N2CCN(Cc3ccccc3)CC2)ncc1C(=O)NCc1ccccn1 | 2250 |  | Not Active | 

More lines, in order of falling EC50 [12], values ahead:

EC50 [12] [nM] | EC50 ([14]; read-out: EC50) [nM] | EC50 ([14]; hek293) | Compound | other results
468 |  | Not Active | O=C(NCc1ccccc1)c1cnc(N2CCN(Cc3ccccc3)CC2)nc1NC1CC1 | 
215 | 49 |  | CC(C)CNc1nc(N2CCN(Cc3ccccc3)CC2)ncc1C(=O)NCc1cccnc1 | 
186 | 27 |  | O=C(NCc1ccccc1)c1cnc(N2CCN(C(=O)c3c(F)cccc3F)CC2)nc1NC1CC1 | 
175 | 79 |  | CC(C)CNc1nc(N2CCN(Cc3ccccc3)CC2)ncc1C(=O)NCc1ccccc1 | 
97 | 23 |  | CC(C)CNc1nc(N2CCN(CC3CCCOC3)CC2)ncc1C(=O)NCc1ccccc1 (stereo not given) | Activity [1]: inactive; Activity [2]: inactive; Activity [3]: Active; solubility [4]: 6.4 µM (≈ 2.99 µg/mL); Activity [5]: inactive; inhibition [6]: < 10%; Activity [7]: inactive; Activity [8]: inactive; Activity [9]: inactive; inhibition [10]: < 10%; Activity [11]: inactive; inhibition [13]: < 10%; Activity [15]: inactive; inhibition [16]: < 10%; inhibition [17]: < 10%
